Experimental data: paper PMC12250628, “Pharmacokinetics of Cannabidiol in Rat Brain Tissue After Single-Dose Administration of Different Formulations” (Molecules, 2025)

How the values were obtained:
[1] = Locomotor behavior and cognitive performance of the studied animals after CBD administration; assay type: in vivo, rat; details: rats, single oral dose of 10 mg/kg CBD
[2] = design: method as in PMID 34330718, PMID 28861484; details: phase I CBD metabolites; cited from earlier work

| SMILES | impact on locomotor behavior and cognitive performance [1] | pharmacological activity [2] |
| --- | --- | --- |
| C=C(C)[C@@H]1CCC(C)=C[C@H]1c1c(O)cc(CCCCC)cc1O [CBD, cannabidiol] | no negative impacts on locomotor behavior and cognitive performance |  |
| C=C(C)[C@@H]1CCC(CO)=C[C@H]1c1c(O)cc(CCCCC)cc1O [Carrier 7-OH-CBD, 7-hydroxy-cannabidiol] |  | pharmacologically active |
| C=C(C)[C@@H]1CCC(C(=O)O)=C[C@H]1c1c(O)cc(CCCCC)cc1O [Carrier 7-COOH-CBD, 7-carboxy-cannabidiol] |  | does not exhibit such activity anymore |
